In BindingDB's records for doi:10.7270/Q2ST7N9K (Burnham Center For Chemical Genomics, 2010):

molecular target: Intestinal-type alkaline phosphatase (Homo sapiens, UniProt P09923); experiment: human intestinal alkaline phosphatase activators, dose response, biochemical, luminescence, uHTS hits (AID 463120)
Sequence (P09923 whole entry): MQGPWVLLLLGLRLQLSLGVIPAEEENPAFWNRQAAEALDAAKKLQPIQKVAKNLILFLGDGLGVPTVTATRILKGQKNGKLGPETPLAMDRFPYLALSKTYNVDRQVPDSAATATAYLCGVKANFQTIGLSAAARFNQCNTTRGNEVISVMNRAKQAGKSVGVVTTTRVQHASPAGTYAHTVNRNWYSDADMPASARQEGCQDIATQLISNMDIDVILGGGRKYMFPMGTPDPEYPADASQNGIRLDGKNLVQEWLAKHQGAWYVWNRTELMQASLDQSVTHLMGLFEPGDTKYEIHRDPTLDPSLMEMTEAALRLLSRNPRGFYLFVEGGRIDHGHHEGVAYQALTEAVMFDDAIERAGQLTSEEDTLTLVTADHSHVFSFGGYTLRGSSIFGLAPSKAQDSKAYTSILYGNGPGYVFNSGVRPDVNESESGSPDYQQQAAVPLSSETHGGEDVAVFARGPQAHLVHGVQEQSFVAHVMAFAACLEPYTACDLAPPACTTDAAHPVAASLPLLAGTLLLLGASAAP

Question: Which EC50 does the source give for O=C(Nn1c(O)csc1=S)C(=O)Nn1c(O)csc1=S [SMR000349781] here?
Answer: 9.21 µM

Question: For Cc1c(C(=O)NN=Cc2ccc(O)cc2O)[nH][nH]c1=O, which EC50 is on record?
Answer: 8.3 µM

Question: For CCOC(=O)c1c(C)[nH]c(C(=O)N/N=C/C2C=C([N+](=O)[O-])C=CC2=O)c1C (stereo not drawn) [ethyl 2,4-dimethyl-5-[[[(E)-(3-nitro-6-oxocyclohexa-2,4-dien-1-ylidene)methyl]amino]carbamoyl]-1H-pyrrole-3-carboxylate], which EC50 is on record?
Answer: 12.1 µM

Question: Which EC50 does the source give for Cn1c(C(C#N)C(=O)c2ccc(Br)s2)nc2ccccc21 (stereo not drawn) [MLS001167394] here?
Answer: 77 µM

Question: Cc1ccc(O)c(N=CCC(=O)c2ccc(F)cc2)c1 [MLS001183581] was tested. Which EC50 did it give?
Answer: > 100 µM

Question: For O=c1c2ccccc2nc(N=NCc2c(O)ccc3ccccc23)n1O [SMR000145705], which EC50 is on record?
Answer: 13.6 µM

Question: CCc1ccc(CN=Nc2ncnc3nc[nH]c23)cc1 [MLS000419199] was tested. Which EC50 did it give?
Answer: 6.62 µM

Question: Which EC50 does the source give for COc1cccc(C=NNC(=O)c2[nH][nH]c(=O)c2C)c1O [N'-[(E)-(5-methoxy-6-oxidanylidene-cyclohexa-2,4-dien-1-ylidene)methyl]-4-methyl-5-oxidanylidene-1,4-dihydropyrazole-3-carbohydrazide] here?
Answer: 6.53 µM

Question: For O=Nc1[nH]c(=O)c(CC(=O)c2ccccc2)nc1NO [SMR000539633], which EC50 is on record?
Answer: 8.21 µM

Question: C=c1[nH]n(-c2nc3ccccc3[nH]2)c(=O)c1=CN(C)C [(4E)-2-(1H-benzimidazol-2-yl)-4-(dimethylaminomethylidene)-5-methyl-pyrazol-3-one] was tested. Which EC50 did it give?
Answer: 12.3 µM

Question: COc1ccc(Cc2cc(O)n(-c3ccc(C)cc3)c2O)cc1 [3-(4-Methoxy-benzyl)-1-p-tolyl-pyrrolidine-2,5-dione] was tested. Which EC50 did it give?
Answer: > 100 µM

Question: With Cc1cc(Br)ccc1SCC(=O)OCC(=O)C(C#N)c1nc2ccccc2[nH]1 (stereo not drawn) [2-[(4-bromo-2-methylphenyl)thio]acetic acid [3-cyano-3-(1,3-dihydrobenzimidazol-2-ylidene)-2-oxopropyl] ester] as the molecule, how does the EC50 read?
Answer: 13.4 µM

Question: How did the EC50 turn out when COc1cccc(CN=Nc2nn3cnnc3c3ccccc23)c1O was run?
Answer: > 100 µM
